Measurements: patent US7427612B2, “Benzoyl-piperazine derivatives” (Hoffmann-La Roche Inc., priority 2003, dated 2008)

Target: T1, mGlyT-1b (Mus musculus, UniProt P28571)
T1 construct: host or cells: Flp-in CHO cells, stably transfected
T1 sequence (P28571 1-651 isoform P28571-2): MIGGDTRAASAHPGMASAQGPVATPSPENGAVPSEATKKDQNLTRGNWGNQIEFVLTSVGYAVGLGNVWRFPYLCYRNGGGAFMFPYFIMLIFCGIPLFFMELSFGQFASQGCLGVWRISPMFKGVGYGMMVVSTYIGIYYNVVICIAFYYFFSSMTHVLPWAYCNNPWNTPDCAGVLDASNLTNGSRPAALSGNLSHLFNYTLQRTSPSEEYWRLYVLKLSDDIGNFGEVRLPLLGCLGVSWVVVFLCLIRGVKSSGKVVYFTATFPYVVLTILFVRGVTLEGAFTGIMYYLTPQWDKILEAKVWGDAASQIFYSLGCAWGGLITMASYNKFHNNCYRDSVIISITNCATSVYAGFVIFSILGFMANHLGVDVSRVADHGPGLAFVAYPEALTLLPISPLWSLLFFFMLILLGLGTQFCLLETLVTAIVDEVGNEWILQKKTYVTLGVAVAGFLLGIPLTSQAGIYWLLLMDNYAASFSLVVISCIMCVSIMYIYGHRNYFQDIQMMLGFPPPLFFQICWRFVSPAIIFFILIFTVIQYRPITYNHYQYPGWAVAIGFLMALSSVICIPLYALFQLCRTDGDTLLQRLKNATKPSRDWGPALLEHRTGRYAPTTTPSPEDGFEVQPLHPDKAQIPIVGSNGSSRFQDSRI
Test: Glycine uptake inhibition assay (mGlyT-1b)
Type: cell-based
Details: inhibition of [3H]-glycine uptake in Flp-in-CHO cells stably transfected with mGlyT1b cDNA; 20 min at 22° C.
Description: DMEM complete medium: Nutrient mixture F-12 (Gibco Life-technologies), fetal bovine serum (FBS) 5%, (Gibco life technologies), Penicillin/Streptomycin 1% (Gibco life technologies), Hygromycin 0.6 mg/ml (Gibco life technologies), Glutamine 1 mM Gibco life technologies)
Uptake buffer (UB): 150 mM NaCl, 10 mM Hepes-Tris, pH 7.4, 1 mM CaCl2, 2.5 mM KCl, 2.5 mM MgSO4, 10 mM (+) D-glucose. Flp-in™—CHO (Invitrogen Cat n° R758-07)cells stably transfected with mGlyT1b cDNA.
Glycine uptake inhibition assay (mGlyT-1b)
On Day 1 mammallian cells, (Flp-in™—CHO), transfected with mGlyT-1b cDNA, were plated at the density of 40,000 cells/well in complete F-12 medium, without hygromycin in 96-well culture plates. On day 2, the medium was aspirated and the cells were washed twice with uptake buffer (UB). The cells were then incubated for 20 min at 22° C. with either (i) no potential competitor, (ii) 10 mM non-radioactive glycine, (iii) a concentration of a potential inhibitor. A range of concentrations of the potential inhibitor was used to generate data for calculating the concentration of inhibitor resulting in 50% of the effect (e.g. IC50, the concentration of the competitor inhibiting glycine uptake of 50%). A solution was then immediately added containing [^3H]-glycine 60 nM (11-16 Ci/mmol) and 25 μM non-radioactive glycine. The plates were incubated with gentle shaking and the reaction was stopped by aspiration of the mixture and washing (three times) with ice-cold UB. The cells were lysed with scintillation liquid, shaken 3 hours and the radioactivity in the cells was counted using a scintillation counter.

Row | Compound | IC50 [nM]
1 | CC(=O)c1ccc(N2CCN(C(=O)c3cc([N+](=O)[O-])ccc3NC3CCC3)CC2)c(F)c1 [Example 20, 1-{4-[4-(2-Cyclobutylamino-5-nitro-benzoyl)-piperazin-1-yl]-3-fluoro-phenyl}-ethanone] | 2.1
2 | CC(=O)c1ccc(N2CCN(C(=O)c3cc([N+](=O)[O-])ccc3NC3CCCC3)CC2)c(F)c1 [Example 21, 1-{4-[4-(2-Cyclopentylamino-5-nitro-benzoyl)-piperazin-1-yl]-3-fluoro-phenyl}-ethanone] | 2.3
3 | CCN(CC)c1ccc([N+](=O)[O-])cc1C(=O)N1CCN(c2ccc(C(C)=O)cc2F)CC1 [Example 11, 1-{4-[4-(2-Diethylamino-5-nitro-benzoyl)-piperazin-1-yl]-3-fluoro-phenyl}-ethanone] | 15
4 | CC(=O)c1ccc(N2CCN(C(=O)c3cc([N+](=O)[O-])ccc3N3CC=CC3)CC2)c(F)c1 [Example 41, 1-(4-{4-[2-(2,5-Dihydro-pyrrol-1-yl)-5-nitro-benzoyl]-piperazin-1-yl}-3-fluoro-phenyl)-ethanone] | 14
5 | C=CCN(C)c1ccc([N+](=O)[O-])cc1C(=O)N1CCN(c2ccc(C(C)=O)cc2F)CC1 [Example 43, 1-(4-{4-[2-(Allyl-methyl-amino)-5-nitro-benzoyl]-piperazin-1-yl}-3-fluoro-phenyl)-ethanone] | 9
6 | CC(=O)c1ccc(N2CCN(C(=O)c3cc([N+](=O)[O-])ccc3N3CCSCC3)CC2)c(F)c1 [Example 42, 1-{3-Fluoro-4-[4-(5-nitro-2-thiomorpholin-4-yl-benzoyl)-piperazin-1-yl]-phenyl}-ethanone] | 3.5
7 | CC(=O)c1ccc(N2CCN(C(=O)c3cc([N+](=O)[O-])ccc3N3CCCC(O)C3)CC2)c(F)c1 (centres unmarked) [Example 45, 1-(3-Fluoro-4-{4-[2-(3-hydroxy-piperidin-1-yl)-5-nitro-benzoyl]-piperazin-1-yl}-phenyl)-ethanone] | 19
8 | CC(=O)c1ccc(N2CCN(C(=O)c3cc([N+](=O)[O-])ccc3NC(C)C)CC2)c(F)c1 [Example 18, 1-{3-Fluoro-4-[4-(2-isopropylamino-5-nitro-benzoyl)-piperazin-1-yl]-phenyl}-ethanone] | 2.5
9 | CNS(=O)(=O)c1ccc(N2CCCCC2)c(C(=O)N2CCN(c3ccc(C#N)c(F)c3)CC2)c1 [Example 248, 3-[4-(4-Cyano-3-fluoro-phenyl)-piperazine-1-carbonyl]-N-methyl-4-piperidin-1-yl-benzenesulfonamide] | 10
10 | CC(=O)c1ccc(N2CCN(C(=O)c3cc([N+](=O)[O-])ccc3N3CCC(C)CC3)CC2)c(F)c1 [Example 36, 1-(3-Fluoro-4-{4-[2-(4-methyl-piperidin-1-yl)-5-nitro-benzoyl]-piperazin-1-yl}-phenyl)-ethanone] | 14
11 | CC(=O)c1ccc(N2CCN(C(=O)c3cc(S(C)(=O)=O)ccc3N3CCCC3)CC2)c(F)c1 [Example 83, 1-{3-Fluoro-4-[4-(5-methanesulfonyl-2-pyrrolidin-1-yl-benzoyl)-piperazin-1-yl]-phenyl}-ethanone] | 19
12 | CC(=O)c1ccc(N2CCN(C(=O)c3cc([N+](=O)[O-])ccc3N3CCOCC3)CC2)c(F)c1 [Example 1, 1-{4-[4-(2-Morpholin-4-yl-5-nitro-benzoyl)-piperazin-1-yl]-3-fluoro-phenyl}-ethanone] | 15
13 | CC(=O)c1ccc(N2CCN(C(=O)c3cc([N+](=O)[O-])ccc3NC3CCCCC3)CC2)c(F)c1 [Example 6, 1-{4-[4-(2-Cyclohexylamino-5-nitro-benzoyl)-piperazin-1-yl]-3-fluoro-phenyl}-ethanone] | 10
14 | CS(=O)(=O)c1ccc(N2CCCCC2)c(C(=O)N2CCN(c3ccc(C#N)cc3F)CC2)c1 [Example 216, 3-Fluoro-4-[4-(5-methanesulfonyl-2-piperidin-1-yl-benzoyl)-piperazin-1-yl]-benzonitrile] | 12
15 | CC(=O)c1ccc(N2CCN(C(=O)c3cc([N+](=O)[O-])ccc3N3CCCCC3C)CC2)c(F)c1 (centres unmarked) [Example 35, 1-(3-Fluoro-4-{4-[2-(2-methyl-piperidin-1-yl)-5-nitro-benzoyl]-piperazin-1-yl}-phenyl)-ethanone] | 6
16 | CC(=O)c1ccc(N2CCN(C(=O)c3cc([N+](=O)[O-])ccc3N3CCCC3)CC2)c(F)c1 [Example 16, 1-{3-Fluoro-4-[4-(5-nitro-2-pyrrolidin-1-yl-benzoyl)-piperazin-1-yl]-phenyl}-ethanone] | 12
17 | CS(=O)(=O)c1ccc(N2CCCCC2)c(C(=O)N2CCN(c3ccc(C#N)c(F)c3)CC2)c1 [Example 217, 2-Fluoro-4-[4-(5-methanesulfonyl-2-piperidin-1-yl-benzoyl)-piperazin-1-yl]-benzonitrile] | 16

Continued, values first:

Row | IC50 [nM] | Compound
18 | 6.5 | CNS(=O)(=O)c1ccc(N2CCCC2)c(C(=O)N2CCN(c3ccc(C(F)(F)F)cc3F)CC2)c1 [Example 235, 3-[4-(2-Fluoro-4-trifluoro-methyl-phenyl)-piperazine-1-carbonyl]-N-methyl-4-pyrrolidin-1-yl-benzenesulfonamide]
19 | 15 | CNS(=O)(=O)c1ccc(N2CCCCC2)c(C(=O)N2CCN(c3ccc(C(F)(F)F)cc3F)CC2)c1 [Example 250, 3-[4-(2-Fluoro-4-trifluoromethyl-phenyl)-piperazine-1-carbonyl]-N-methyl-4-piperidin-1-yl-benzenesulfonamide]
20 | 10 | CNS(=O)(=O)c1ccc(N2CCCC2)c(C(=O)N2CCN(c3ccc(C#N)cc3F)CC2)c1 [Example 234, 3-[4-(4-Cyano-2-fluoro-phenyl)-piperazine-1-carbonyl]-N-methyl-4-pyrrolidin-1-yl-benzenesulfonamide]
21 | 4 | CNS(=O)(=O)c1ccc(N2CCCC2)c(C(=O)N2CCN(c3ccc(C(F)(F)F)c(F)c3)CC2)c1 [Example 236, 3-[4-(3-Fluoro-4-trifluoromethyl-phenyl)-piperazine-1-carbonyl]-N-methyl-4-pyrrolidin-1-yl-benzenesulfonamide]
22 | 19 | CNS(=O)(=O)c1ccc(N2CCCCC2)c(C(=O)N2CCN(c3ccc(C(F)(F)F)c(F)c3)CC2)c1 [Example 251, 3-[4-(3-Fluoro-4-trifluoro-methyl-phenyl)-piperazine-1-carbonyl]-N-methyl-4-piperidin-1-yl-benzenesulfonamide]
23 | 5 | CNS(=O)(=O)c1ccc(N2CCCC2)c(C(=O)N2CCN(c3ccc(C(F)(F)F)cc3)CC2)c1 [Example 129, N-Methyl-4-pyrrolidin-1-yl-3-[4-(4-trifluoromethyl-phenyl)-piperazine-1-carbonyl]-benzenesulfonamide]
24 | 17 | CS(=O)(=O)c1ccc(N2CCCCC2)c(C(=O)N2CCN(c3ccc(C(F)(F)F)cc3F)CC2)c1 [Example 219, [4-(2-Fluoro-4-trifluoromethyl-phenyl)piperazin-1-yl]-(5-methanesulfonyl-2-piperidin-1-yl-phenyl)-methanone]
25 | 14 | CNS(=O)(=O)c1ccc(N2CCCCC2)c(C(=O)N2CCN(c3ccc(C#N)cc3F)CC2)c1 [Example 247, 3-[4-(4-Cyano-2-fluoro-phenyl)-piperazine-1-carbonyl]-N-methyl-4-piperidin-1-yl-benzene-sulfonamide]
26 | 18 | CNS(=O)(=O)c1ccc(N2CCCCC2)c(C(=O)N2CCN(c3ccc(C(C)=O)cc3F)CC2)c1 [Example 245, 3-[4-(4-Acetyl-2-fluoro-phenyl)-piperazine-1-carbonyl]-N-methyl-4-piperidin-1-yl-benzene-sulfonamide]
